What is called Ki is a dissociation constant, usually derived from enzyme kinetics or from competition with a known ligand.

The results in this text go back to patent publication US10160762B2, “6-alkyl dihydropyrazolopyrimidinone compounds as PDE2 inhibitors” (Merck Sharp & Dohme Corp., priority 2015, dated 2018).

Each structure is given as a SMILES string. Where two headings read alike, the source gives them in different places.

This assay addresses T1, Rhesus PDE2A3 (Macaca mulatta, UniProt B3VTJ2).
T1 construct: made in house; host or cells: AD293 cells, transient transfection; supernatant of sonicated lysate
T1 sequence (B3VTJ2 1-941): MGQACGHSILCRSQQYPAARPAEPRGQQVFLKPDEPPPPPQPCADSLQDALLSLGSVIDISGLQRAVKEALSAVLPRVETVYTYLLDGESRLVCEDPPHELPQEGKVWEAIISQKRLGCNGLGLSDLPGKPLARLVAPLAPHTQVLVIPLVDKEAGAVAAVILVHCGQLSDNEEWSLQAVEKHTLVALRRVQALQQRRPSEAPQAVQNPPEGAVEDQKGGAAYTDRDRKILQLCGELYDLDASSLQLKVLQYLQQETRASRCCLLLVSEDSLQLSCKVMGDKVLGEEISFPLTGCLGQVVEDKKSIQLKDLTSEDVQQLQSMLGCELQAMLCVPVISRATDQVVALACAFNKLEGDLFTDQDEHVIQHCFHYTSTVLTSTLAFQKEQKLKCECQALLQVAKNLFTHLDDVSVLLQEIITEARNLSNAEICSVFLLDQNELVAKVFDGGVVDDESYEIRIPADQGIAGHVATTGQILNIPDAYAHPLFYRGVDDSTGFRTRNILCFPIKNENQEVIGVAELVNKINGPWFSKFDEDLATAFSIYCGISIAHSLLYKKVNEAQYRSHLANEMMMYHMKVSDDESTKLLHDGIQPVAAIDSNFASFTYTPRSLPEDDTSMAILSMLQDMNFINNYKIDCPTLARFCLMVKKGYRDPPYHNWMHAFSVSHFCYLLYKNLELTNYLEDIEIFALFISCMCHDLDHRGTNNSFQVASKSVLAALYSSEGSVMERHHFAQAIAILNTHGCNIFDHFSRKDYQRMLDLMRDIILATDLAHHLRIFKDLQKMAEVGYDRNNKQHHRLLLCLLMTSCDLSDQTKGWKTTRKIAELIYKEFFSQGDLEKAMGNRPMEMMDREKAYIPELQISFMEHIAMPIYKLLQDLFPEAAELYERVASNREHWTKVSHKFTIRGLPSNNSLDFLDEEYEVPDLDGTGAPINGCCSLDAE
Nature of the assay: PDE2 fluorescence polarization (IMAP FP) inhibition assay, rhesus PDE2A3. Type of assay: biochemical, rhesus macaque. An outline of the steps:
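Enzyme source was the lysate supernatant of AD293 cells transiently expressing rhesus PDE2A3, diluted to give 20% conversion of 50 nM FAM-cAMP, with 1 µM cGMP as activator. Buffer was 10 mM Tris pH 7.2, 10 mM MgCl2, 1 mM DTT.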
On the technique in general: In fluorescence polarisation assays a small probe gives low polarisation when free and higher when bound to something large.

Setting [1] is: Lab A, read-out: Rhesus PDE2 Ki (nM) Lab A.
Where [2] appears, read: Lab B, read-out: Rhesus PDE2 Ki (nM) Lab B.

For `Cc1nc2c(c(CO)nn2C(C)c2ccc(C(F)(F)F)cc2)c(=O)[nH]1` (stereo not shown) [Example 7, 3-(Hydroxymethyl)-6-methyl-1-(1-(4-(trifluoromethyl)phenyl)ethyl)-1H-pyrazolo[3,4-d]pyrimidin-4(5H)-one], the Ki under setting [1] was 19 nM. As to `Cc1nc2c(c(CO)nn2C(c2ccc(OC(F)(F)F)cc2)C2CC2)c(=O)[nH]1` (single isomer, unassigned) [Example 94, (R)- or (S)-1-(Cyclopropyl(4-(trifluoromethoxy)phenyl)methyl)-3-(hydroxymethyl)-6-methyl-1H-pyrazolo[3,4-d]pyrimidin-4(5H)-one], the Ki under setting [2] is 18 nM. On to `Cc1nc2c(c(CCl)nn2C(c2ccc(C(F)(F)F)cc2)C2CC2)c(=O)[nH]1` (stereo not shown) [Example 232, 3-(chloromethyl)-1-(cyclopropyl(4-(trifluoromethyl)phenyl)methyl)-6-methyl-1H-pyrazolo[3,4-d]pyrimidin-4(5H)-one], for which the Ki by setting is: under setting [1], 0.47 nM; under setting [2], 0.85 nM. For the compound `Cc1nc2c(c(C)nn2C(C)c2ccc(C(F)(F)F)cc2)c(=O)[nH]1` (single isomer, unassigned) [Example 36], the Ki under setting [1] was found to be 443 nM. `Cc1nc2c(c(CO)nn2C(C)c2ccc(C(F)(F)F)c(F)c2)c(=O)[nH]1` (stereo not shown) [Example 1, 1-(1-(3-Fluoro-4-(trifluoromethyl)phenyl)ethyl)-3-(hydroxymethyl)-6-methyl-1H-pyrazolo[3,4-d]pyrimidin-4(5H)-one]: the Ki is, setting by setting: under setting [1], 4.1 nM; under setting [2], 7.2 nM. Take `Cc1nn(C(C)c2ccc(C(F)(F)F)cc2)c2nc(-c3cnc4ccccc4n3)[nH]c(=O)c12` (stereo not shown) [Example 50, 3-Methyl-6-quinoxalin-2-yl-1-{1-[4-(trifluoromethyl)phenyl]ethyl}-1,5-dihydro-4H-pyrazolo[3,4-d]pyrimidin-4-one]: the Ki under setting [1] is 62 nM. For `COCc1nc2c(c(C)nn2C(C)c2ccc(C(F)(F)F)cc2)c(=O)[nH]1` (stereo not shown) [Example 48, 6-(Methoxymethyl)-3-methyl-1-{1-[4-(trifluoromethyl)phenyl]ethyl}-1,5-dihydro-4H-pyrazolo[3,4-d]pyrimidin-4-one], under setting [1], the Ki turned out to be 36 nM. For the compound `Cc1nn(C(C)c2ccc(C(F)(F)F)cc2)c2nc(-c3ccco3)[nH]c(=O)c12` (stereo not shown) [Example 49, 6-Furan-2-yl-3-methyl-1-{1-[4-(trifluoromethyl)phenyl]ethyl}-1,5-dihydro-4H-pyrazolo[3,4-d]pyrimidin-4-one], under setting [1], the inhibition constant Ki is 9 nM. Turning to `Cc1nc2c(c(CO)nn2C(C)c2ccc(C(F)(F)F)cc2)c(=O)[nH]1` (single isomer, unassigned) [Example 27, (S)- or (R)-3-(Hydroxymethyl)-6-methyl-1-{1-[4-(trifluoromethyl)phenyl]ethyl]-1,5-dihydro-4H-pyrazolo[3,4-d]pyrimidin-4-one], the Ki under setting [1] was found to be 2 nM and the Ki under setting [2] worked out at 2.1 nM. For `CCc1nc2c(c(C)nn2C(C)c2ccc(C(F)(F)F)cc2)c(=O)[nH]1` (stereo not shown) [Example 38, 6-Ethyl-3-methyl-1-{1-[4-(trifluoromethyl)phenyl]ethyl}-1,5-dihydro-4H-pyrazolo[3,4-d]pyrimidin-4-one], the Ki under setting [1] was 58 nM. On the same count and under the same terms, with `Cc1nn(C(C)c2ccc(C(F)(F)F)cc2)c2nc(C3CCC3)[nH]c(=O)c12` (stereo not shown) [Example 39, 6-Cyclobutyl-3-methyl-1-{1-[4-(trifluoromethyl)phenyl]ethyl}-1,5-dihydro-4H-pyrazolo[3,4-d]pyrimidin-4-one] the figure was 147 nM. Consider `Cc1nc2c(c(CO)nn2C(C)c2ccc(OC(F)(F)F)c(F)c2)c(=O)[nH]1` (single isomer, unassigned) [Example 10, (R)- or (S)-1-(1-(3-Fluoro-4-(trifluoromethoxy)phenyl)ethyl)-3-(hydroxymethyl)-6-methyl-1H-pyrazolo[3,4-d]pyrimidin-4(5H)-one], for which the Ki worked out at 39 nM under setting [1] and 103 nM under setting [2].

As to `Cc1nc(-c2nc3c(c(C)nn3C(C)c3ccc(C(F)(F)F)cc3)c(=O)[nH]2)c(C)o1` (stereo not shown) [Example 54, 6-(2,5-Dimethyl-1,3-oxazol-4-yl)-3-methyl-1-{1-[4-(trifluoromethyl)phenyl]ethyl}-1,5-dihydro-4H-pyrazolo[3,4-d]pyrimidin-4-one], the Ki under setting [1] came to 32 nM. Still for that read-out and setting: under `Cc1nc2c(c(CO)nn2Cc2ccc(C(F)(F)F)cc2)c(=O)[nH]1` [Example 8, 3-(Hydroxymethyl)-6-methyl-1-[4-(trifluoromethyl)benzyl]-1,5-dihydro-4H-pyrazolo[3,4-d]pyrimidin-4-one] stands 192 nM. As to `Cc1nc2c(c(CF)nn2C(C)c2ccc(C(C)(C)C)cc2)c(=O)[nH]1` (single isomer, unassigned) [Example 214, (R)- or (S)-1-(1-(4-tert-Butylphenyl)ethyl)-3-(fluoromethyl)-6-methyl-1H-pyrazolo[3,4-d]pyrimidin-4(5H)-one], the Ki is, setting by setting: under setting [1], 179 nM; under setting [2], 318 nM.

With `Cc1nc2c(c(CO)nn2[C@@H](c2ccc(C(C)(C)C)cc2)C(C)C)c(=O)[nH]1` [Example 160, (R)-1-(1-(4-tert-Butylphenyl)-2-methylpropyl)-3-(hydroxymethyl)-6-methyl-1H-pyrazolo[3,4-d]pyrimidin-4(5H)-one], under setting [2], the Ki stood at 0.3 nM.

For the compound `Cc1nc2c(c(C(F)F)nn2C(C)c2ccc(C(F)(F)F)cc2)c(=O)[nH]1` (stereo not shown) [Example 166, 3-(Difluoromethyl)-6-methyl-1-{1-[4-(trifluoromethyl)phenyl]ethyl}-1,5-dihydro-4H-pyrazolo[3,4-d]pyrimidin-4-one], the Ki under setting [1] came to 6.7 nM and the Ki under setting [2] was found to be 7.9 nM.

Turning to `CCC(CCCc1ccccc1)n1nc(C)c2c(=O)[nH]c(C)nc21` (stereo not shown) [Example 338, 1-(1-ethyl-4-phenylbutyl)-3,6-dimethyl-1,5-dihydro-4H-pyrazolo[3,4-d]pyrimidin-4-one], under setting [1], the Ki is 113 nM. For `Cc1nc2c(c(CO)nn2C(c2ccc(OC(F)(F)F)cc2)C2CC2)c(=O)[nH]1` (single isomer, unassigned) [Example 95, (S)- or (R)-1-(Cyclopropyl(4-(trifluoromethoxy)phenyl)methyl)-3-(hydroxymethyl)-6-methyl-1H-pyrazolo[3,4-d]pyrimidin-4(5H)-one], under setting [2], the Ki was 2.1 nM.

`Cc1nc2c(c(CO)nn2[C@@H](C)c2ccc(C(C)(C)C)cc2)c(=O)[nH]1` [Example 157, (S)-1-(1-(4-tert-Butylphenyl)ethyl)-3-(hydroxymethyl)-6-methyl-1H-pyrazolo[3,4-d]pyrimidin-4(5H)-one]: the Ki under setting [2] came to 0.96 nM. As for `Cc1nc2c(c(CF)nn2C(C)c2ccc(S(F)(F)(F)(F)F)cc2)c(=O)[nH]1` (single isomer, unassigned) [Example 200], under setting [2], the Ki worked out at 2.4 nM.

As for `Cc1ccc(C(C)n2nc(CF)c3c(=O)[nH]c(C)nc32)cc1` (stereo not shown) [Example 203, 3-(Fluoromethyl)-6-methyl-1-(1-p-tolylethyl)-1H-pyrazolo[3,4-d]pyrimidin-4(5H)-one], the Ki under setting [1] was about 12 nM and the inhibition constant Ki under setting [2] is 12 nM. On to `Cc1nc2c(c(CF)nn2C(C)c2ccc(OC(F)(F)F)cc2)c(=O)[nH]1` (single isomer, unassigned) [Example 206, (R)- or (S)-3-(Fluoromethyl)-6-methyl-1-(1-(4-(trifluoro-methoxy-)phenyl)ethyl)-1H-pyrazolo[3,4-d]pyrimidin-4(5H)-one], for which the Ki reads like this: under setting [1], 41 nM; under setting [2], 123 nM.
